Assays:
[1] = In vivo MTN recovery in mouse urine after single i.v. dose (Example 17)
Method: NAC-MTN or MTN alone was administered intravenously to mice via the tail vein. […] After 2 hours, NAC-MTN or MTN was detected in urine, quantified by absorbance at 665 nm, and reported as % of total.
Procedure. […] White mice, n=2 were tail vein injected with 0.25 ml of either NAC-MTN or MTN alone. […] MTN was quantified in mouse urine by absorbance of 0.2 ml sample at 665 nm, and converted to mg/ml using an MTN standard curve.
To determine if NAC-MTN was excreted in urine as a complex, MTN fluorescence due to unbound NAC was assayed by an addition method. DNA was added to urine from both groups and subsequent change in fluorescence was measured.

[2] = tested on: BHK21; experiment: Cell uptake by MTN fluorescence EX620/EM680 (Examples 10 and 13, EX051605); type: cell-based, hamster; conditions: 10% w/w loading in DNA
Method: (§1) Materials: HSGDNA, MTN, ODNAS1116 (phosphorothioated, single stranded DNA, and Beta-cyclodextrin polymer (BCD-SBE, KKBIOMED Inc.) were previously prepared in water at 10 mg/ml, 1 mg/ml, 0.95 mg/ml, and 10 mg/ml respectively.
(§2) Procedure: For NAC-MTN, combined 37 ul HSGDNA (herring genomic DNA, Promega Inc.), 1426 ul HBSS( Hank's buffered saline, Sigma-Aldrich), with 37 ul of MTN, followed by 1500 ul 2× DMEM media to give 3 ml final and 24 uM (24 micro-molar) MTN and 10% w/w drug loading of MTN. For NAC-MTN (AR1505) combined 62 ul of HSDNA (deg. herring sperm DNA, Sigma) with 2377 ul HBSS, 61.7 ul MTN, 2500 ul 2× media to give 5 ml final and 24 uM MTN and 10% w/w drug loading of MTN to HSDNA. […]
(§3) Plate#1 Media was aspirated and cells treated with 100 ul of either NAC-MTN, CD-MTN, or MTN at 24 uM MTN final or 12.3 ug/ml MTN in all samples. Samples containing MTN were incubated 4 hours, removed, and fluorescence taken at EX620/EM680. […]
(§4) Samples were incubated 4 hours, removed, and MTN fluorescence taken at EX620/EM680. […] Average MTN fluorescence was averaged from 6 wells. For each cell type, MTN fluorescence was highest in MTN treated cells, followed by CD-MTN, and lowest in NAC-MTN. […]
(§5) PLATE#2: Dispensed 50 ul from source plate into plate #2 to give 150 ul final vol 4.1 ug/ml, 8 uMfinal per well, pre-read fluorescence w samples (bkgd) incubated 5 hr, removed, replaced w/ media, read fluor. […]

[3] = tested on: 3T3; experiment: as above; type: cell-based, mouse; conditions: 10% w/w loading in DNA
Method: as §1, §2, §3, §4, §5

[4] = Elapsed Time 2.5 hr, 0.281 mg MTN i.v.

## O=C1c2c(O)ccc(O)c2C(=O)c2c(NCCNCCO)ccc(NCCNCCO)c21 [MTN, mitoxantrone]
[1]; [4]
  FLUOR. (mouse urine): 4086
  MTN % recov. in urine (% of total dose): 1.9%
[1]; Elapsed Time 5 hr
  FLUOR. (mouse urine): 4405
  MTN % recov. in urine (% of total dose): 1.6%
[1]; Elapsed Time 8 hr
  FLUOR. (mouse urine): 4455
  MTN % recov. in urine (% of total dose): 3.8%
[2]; Plate#1, 24 uM MTN, 4 hours
  % reduction in fluorescence relative to MTN alone (MTN = 0%): 0%
[2]; Plate#2, 8 uM MTN
  % reduction in fluorescence relative to MTN alone (MTN = 0%): 0%
[3]; Plate#1, 24 uM MTN, 4 hours
  % reduction in fluorescence relative to MTN alone (MTN = 0%): 0%
[3]; Plate#2, 8 uM MTN
  % reduction in fluorescence relative to MTN alone (MTN = 0%): 0%

Reference: patent publication US20070225213A1, “Nucleic acid carriers for delivery of therapeutic agents” (priority 2006, published 2007)
